These results are taken from patent publication US20260193293A1, “PEPTIDES CAPABLE OF INHIBITING PROTEIN-PROTEIN INTERACTIONS AT GABAB1A SUBUNIT AND USES THEREOF” (UNIVERSITY OF COPENHAGEN, priority 2022, published 2026).

Like-named read-outs stand apart in the source and are kept apart here. Non-standard residues stand in square brackets, D forms with d. Residues, ends and D or L forms follow the SMILES beside them. *: point of attachment. 1Nal = N[C@@H](Cc1cccc2ccccc12)C(=O)O; 2Nal = N[C@@H](Cc1ccc2ccccc2c1)C(=O)O; 3Pal = N[C@@H](Cc1cccnc1)C(=O)O; 4Pal = N[C@@H](Cc1ccncc1)C(=O)O; NMeV = CN[C@H](C(=O)O)C(C)C; Bn = c1ccc(C*)cc1; Sar = CNCC(=O)O

The target of the assay is Sushi domains (SD1/2) protein. In words: Fluorescence polarization (FP) competition assay with AJAP-1probe, calculated Ki. It is filed as binding. The following applies: for fold increased affinity compared to Asp207Trp: relative to Asp207Trp mutant of APPWT. In a few lines: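 Ki values were derived from IC50s (sigmoidal fits, ≥ triplicate), with probe Kd obtained by saturation titration of SD1/2. Peptides displaced a 25 nM TAMRA-labelled probe; polarization read at 530/580 nm in 1% BSA-containing PBS, pH 7.4, room temperature.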

[1] abbreviates: Table 13, peptides for affinity maturation, read-out: Ki (nM) mean ± SEM.
[2] abbreviates: Table 16, ncAAs incorporated peptides, read-out: Ki (nM) mean ± SEM.
Setting [3] is: Table 7, Ala-, D-amino acids and N-methylation scans of APPWT, read-out: Ki (nM) mean ± SEM.
Setting [4] is: Table 10, deep mutational scanning validation variants of APPWT, read-out: Ki (nM) mean ± SEM.
[5] abbreviates: purified peptides, read-out: Ki.

Broadly, the Ki is a measure of affinity in units of concentration, obtained from inhibition or displacement. As for `CC(=O)N[C@@H](CCC(=O)O)C(=O)N[C@@H](CC(=O)O)C(=O)N[C@@H](CC(=O)O)C(=O)N[C@@H](CO)C(=O)N[C@@H](CC(=O)O)C(=O)N[C@H](C(=O)N[C@@H](Cc1c[nH]c2ccccc12)C(=O)N[C@@H](Cc1c[nH]c2ccccc12)C(=O)N[C@@H](Cc1ccc(O)cc1)C(=O)N(C)CC(=O)N[C@@H](C)C(=O)N[C@@H](CC(=O)O)C(=O)N[C@H](C(=O)N[C@@H](CC(=O)O)C(N)=O)[C@@H](C)O)C(C)C` (Ac-EDDSDVWWY[Sar]ADTD-NH2), the Ki under setting [1] is 201 ± 6 nM.

As to `CC(=O)N[C@@H](CCC(=O)O)C(=O)N[C@@H](CC(=O)O)C(=O)N[C@@H](CC(=O)O)C(=O)N[C@@H](CO)C(=O)N[C@@H](CC(=O)O)C(=O)N[C@H](C(=O)N[C@@H](Cc1c[nH]c2ccccc12)C(=O)N[C@@H](Cc1c[nH]c2ccccc12)C(=O)N[C@@H](Cc1ccc(O)cc1)C(=O)N(C)CC(=O)N[C@H](C(=O)NCC(=O)N[C@@H](CC(=O)O)C(=O)N[C@@H](CCC(=O)O)C(=O)N[C@@H](CC(=O)O)C(N)=O)[C@@H](C)O)C(C)C` (Ac-EDDSDVWWY[Sar]TGDED-NH2), under setting [1], the Ki was 142 ± 3 nM.

Regarding `CC(=O)N[C@@H](CCC(=O)O)C(=O)N[C@@H](CC(=O)O)C(=O)N[C@@H](CC(=O)O)C(=O)N[C@@H](CO)C(=O)N[C@@H](CC(=O)O)C(=O)N[C@H](C(=O)N[C@@H](Cc1c[nH]c2ccccc12)C(=O)N[C@@H](Cc1c[nH]c2ccccc12)C(=O)N[C@@H](Cc1cccc2ccccc12)C(=O)NCC(=O)N[C@@H](C)C(=O)N[C@@H](CC(=O)O)C(=O)N[C@H](C(=O)N[C@@H](CC(=O)O)C(N)=O)[C@@H](C)O)C(C)C` (Ac-EDDSDVWW[1Nal]GADTD-NH2), the Ki under setting [2] is 114 ± 1 nM.

For `CC(=O)N[C@@H](CCC(=O)O)C(=O)N[C@@H](CC(=O)O)C(=O)N[C@@H](CC(=O)O)C(=O)N[C@@H](CO)C(=O)N[C@@H](CC(=O)O)C(=O)N[C@H](C(=O)N[C@@H](Cc1c[nH]c2ccccc12)C(=O)N[C@@H](Cc1c[nH]c2ccccc12)C(=O)N[C@@H](Cc1ccc2ccccc2c1)C(=O)NCC(=O)N[C@@H](C)C(=O)N[C@@H](CC(=O)O)C(=O)N[C@H](C(=O)N[C@@H](CC(=O)O)C(N)=O)[C@@H](C)O)C(C)C` (Ac-EDDSDVWW[2Nal]GADTD-NH2), the Ki under setting [2] was 75 ± 1 nM.

With `CC(=O)N[C@@H](CCC(=O)O)C(=O)N[C@@H](CC(=O)O)C(=O)N[C@@H](CC(=O)O)C(=O)N[C@@H](CO)C(=O)N[C@@H](CC(=O)O)C(=O)N[C@H](C(=O)N[C@@H](Cc1c[nH]c2ccccc12)C(=O)N[C@@H](Cc1c[nH]c2ccccc12)C(=O)N(C)CC(=O)NCC(=O)N[C@@H](C)C(=O)N[C@@H](CC(=O)O)C(=O)N[C@H](C(=O)N[C@@H](CC(=O)O)C(N)=O)[C@@H](C)O)C(C)C` (Ac-EDDSDVWW[Sar]GADTD-NH2), the inhibition constant Ki under setting [3] was 18900 ± 554 nM.

Consider `CC(=O)N[C@@H](CCC(=O)O)C(=O)N[C@@H](CC(=O)O)C(=O)N[C@@H](CC(=O)O)C(=O)N[C@@H](CO)C(=O)N[C@@H](CC(=O)O)C(=O)N[C@H](C(=O)N[C@@H](Cc1ccc(O)cc1)C(=O)N[C@@H](Cc1c[nH]c2ccccc12)C(=O)NCC(=O)NCC(=O)N[C@@H](C)C(=O)N[C@@H](CC(=O)O)C(=O)N[C@H](C(=O)N[C@@H](CC(=O)O)C(N)=O)[C@@H](C)O)C(C)C` (Ac-EDDSDVYWGGADTD-NH2), for which the Ki under setting [4] is 3600 ± 49 nM.

For the compound `CC(=O)N[C@@H](CCC(=O)O)C(=O)N[C@@H](CC(=O)O)C(=O)N[C@@H](CC(=O)O)C(=O)N[C@@H](CO)C(=O)N[C@@H](CC(=O)O)C(=O)N(C)[C@H](C(=O)N[C@@H](Cc1c[nH]c2ccccc12)C(=O)N[C@@H](Cc1c[nH]c2ccccc12)C(=O)NCC(=O)NCC(=O)N[C@@H](C)C(=O)N[C@@H](CC(=O)O)C(=O)N[C@H](C(=O)N[C@@H](CC(=O)O)C(N)=O)[C@@H](C)O)C(C)C` (Ac-EDDSD[NMeV]WWGGADTD-NH2), the Ki under setting [3] is 12300 ± 375 nM.

Regarding `CC(=O)N[C@@H](CCC(=O)O)C(=O)N[C@@H](CC(=O)O)C(=O)N[C@@H](CC(=O)O)C(=O)N[C@@H](CO)C(=O)N[C@@H](Cc1ccccc1)C(=O)N[C@H](C(=O)N[C@@H](Cc1c[nH]c2ccccc12)C(=O)N[C@@H](Cc1c[nH]c2ccccc12)C(=O)NCC(=O)NCC(=O)N[C@@H](C)C(=O)N[C@@H](CC(=O)O)C(=O)N[C@H](C(=O)N[C@@H](CC(=O)O)C(N)=O)[C@@H](C)O)C(C)C` (Ac-EDDSFVWWGGADTD-NH2), under setting [4], the Ki is 142 ± 6 nM.

As to `CC[C@H](C)[C@H](NC(=O)[C@H](CO)NC(=O)[C@H](CC(=O)O)NC(=O)[C@H](CC(=O)O)NC(=O)[C@H](CCC(=O)O)NC(C)=O)C(=O)N[C@H](C(=O)N[C@@H](Cc1c[nH]c2ccccc12)C(=O)N[C@@H](Cc1c[nH]c2ccccc12)C(=O)NCC(=O)NCC(=O)N[C@@H](C)C(=O)N[C@@H](CC(=O)O)C(=O)N[C@H](C(=O)N[C@@H](CC(=O)O)C(N)=O)[C@@H](C)O)C(C)C` (Ac-EDDSIVWWGGADTD-NH2), under setting [4], the Ki is 243 ± 3 nM.

On to `CC(=O)N[C@@H](CCC(=O)O)C(=O)N[C@@H](CC(=O)O)C(=O)N[C@@H](CC(=O)O)C(=O)N[C@@H](CO)C(=O)N[C@@H](Cc1c[nH]c2ccccc12)C(=O)N[C@H](C(=O)N[C@@H](Cc1c[nH]c2ccccc12)C(=O)N[C@@H](Cc1c[nH]c2ccccc12)C(=O)NCC(=O)N(C)CC(=O)N[C@@H](C)C(=O)N[C@@H](CC(=O)O)C(=O)N[C@H](C(=O)N[C@@H](CC(=O)O)C(N)=O)[C@@H](C)O)C(C)C` (Ac-EDDSWVWWG[Sar]ADTD-NH2), for which the Ki under setting [1] is 36 ± 1 nM.

As for `CC(=O)N[C@@H](CCC(=O)O)C(=O)N[C@@H](CC(=O)O)C(=O)N[C@@H](CC(=O)O)C(=O)N[C@@H](CO)C(=O)N[C@@H](Cc1ccc(OCc2ccccc2)cc1)C(=O)N[C@H](C(=O)N[C@@H](Cc1c[nH]c2ccccc12)C(=O)N[C@@H](Cc1c[nH]c2ccccc12)C(=O)NCC(=O)NCC(=O)N[C@@H](C)C(=O)N[C@@H](CC(=O)O)C(=O)N[C@H](C(=O)N[C@@H](CC(=O)O)C(N)=O)[C@@H](C)O)C(C)C` (Ac-EDDSY(Bn)VWWGGADTD-NH2), the “fold increased affinity compared to Asp207Trp” value (“fold increased affinity” for short) is reported as 4 fold. Besides, under setting [2], the Ki is 28 ± 1 nM. The Ki under setting [5] was 27.1 nM.

As to `CCOc1ccc(C[C@H](NC(=O)[C@H](CO)NC(=O)[C@H](CC(=O)O)NC(=O)[C@H](CC(=O)O)NC(=O)[C@H](CCC(=O)O)NC(C)=O)C(=O)N[C@H](C(=O)N[C@@H](Cc2c[nH]c3ccccc23)C(=O)N[C@@H](Cc2c[nH]c3ccccc23)C(=O)NCC(=O)NCC(=O)N[C@@H](C)C(=O)N[C@@H](CC(=O)O)C(=O)N[C@H](C(=O)N[C@@H](CC(=O)O)C(N)=O)[C@@H](C)O)C(C)C)cc1` (Ac-EDDSY(Et)VWWGGADTD-NH2), the “fold increased affinity” value is 2 fold. Moreover, under setting [2], the inhibitory constant (Ki) is 46 ± 2 nM. Besides, under setting [5], the Ki was 46.3 nM.

Regarding `COc1ccc(C[C@H](NC(=O)[C@H](CO)NC(=O)[C@H](CC(=O)O)NC(=O)[C@H](CC(=O)O)NC(=O)[C@H](CCC(=O)O)NC(C)=O)C(=O)N[C@H](C(=O)N[C@@H](Cc2c[nH]c3ccccc23)C(=O)N[C@@H](Cc2c[nH]c3ccccc23)C(=O)NCC(=O)NCC(=O)N[C@@H](C)C(=O)N[C@@H](CC(=O)O)C(=O)N[C@H](C(=O)N[C@@H](CC(=O)O)C(N)=O)[C@@H](C)O)C(C)C)cc1` (Ac-EDDSY(Me)VWWGGADTD-NH2), the Ki under setting [2] was 101 ± 4 nM.

As for `CC(=O)N[C@@H](CCC(=O)O)C(=O)N[C@@H](CC(=O)O)C(=O)N[C@@H](CC(=O)O)C(=O)N[C@@H](CO)C(=O)N[C@@H](Cc1ccc(O)cc1)C(=O)N[C@H](C(=O)N[C@@H](Cc1c[nH]c2ccccc12)C(=O)N[C@@H](Cc1c[nH]c2ccccc12)C(=O)NCC(=O)NCC(=O)N[C@@H](C)C(=O)N[C@@H](CC(=O)O)C(=O)N[C@H](C(=O)N[C@@H](CC(=O)O)C(N)=O)[C@@H](C)O)C(C)C` (Ac-EDDSYVWWGGADTD-NH2), the Ki under setting [4] was 191 ± 10 nM.

In the case of `CC(=O)N[C@@H](CCC(=O)O)C(=O)N[C@@H](CC(=O)O)C(=O)N[C@@H](CC(=O)O)C(=O)N[C@@H](CO)C(=O)N[C@@H](Cc1cccc2ccccc12)C(=O)N[C@H](C(=O)N[C@@H](Cc1c[nH]c2ccccc12)C(=O)N[C@@H](Cc1c[nH]c2ccccc12)C(=O)NCC(=O)NCC(=O)N[C@@H](C)C(=O)N[C@@H](CC(=O)O)C(=O)N[C@H](C(=O)N[C@@H](CC(=O)O)C(N)=O)[C@@H](C)O)C(C)C` (Ac-EDDS[1Nal]VWWGGADTD-NH2), the Ki under setting [2] is 69 ± 3 nM.

Consider `CC(=O)N[C@@H](CCC(=O)O)C(=O)N[C@@H](CC(=O)O)C(=O)N[C@@H](CC(=O)O)C(=O)N[C@@H](CO)C(=O)N[C@@H](Cc1ccc2ccccc2c1)C(=O)N[C@H](C(=O)N[C@@H](Cc1c[nH]c2ccccc12)C(=O)N[C@@H](Cc1c[nH]c2ccccc12)C(=O)NCC(=O)NCC(=O)N[C@@H](C)C(=O)N[C@@H](CC(=O)O)C(=O)N[C@H](C(=O)N[C@@H](CC(=O)O)C(N)=O)[C@@H](C)O)C(C)C` (Ac-EDDS[2Nal]VWWGGADTD-NH2), for which the “fold increased affinity” value was 2 fold. Besides, the Ki under setting [5] was 43 nM.

For `CC(=O)N[C@@H](CCC(=O)O)C(=O)N[C@@H](CC(=O)O)C(=O)N[C@@H](CC(=O)O)C(=O)N[C@@H](CO)C(=O)N[C@@H](Cc1cccnc1)C(=O)N[C@H](C(=O)N[C@@H](Cc1c[nH]c2ccccc12)C(=O)N[C@@H](Cc1c[nH]c2ccccc12)C(=O)NCC(=O)NCC(=O)N[C@@H](C)C(=O)N[C@@H](CC(=O)O)C(=O)N[C@H](C(=O)N[C@@H](CC(=O)O)C(N)=O)[C@@H](C)O)C(C)C` (Ac-EDDS[3Pal]VWWGGADTD-NH2), the Ki under setting [2] is 373 ± 7 nM.

As for `CC(=O)N[C@@H](CCC(=O)O)C(=O)N[C@@H](CC(=O)O)C(=O)N[C@@H](CC(=O)O)C(=O)N[C@@H](CO)C(=O)N[C@@H](Cc1ccncc1)C(=O)N[C@H](C(=O)N[C@@H](Cc1c[nH]c2ccccc12)C(=O)N[C@@H](Cc1c[nH]c2ccccc12)C(=O)NCC(=O)NCC(=O)N[C@@H](C)C(=O)N[C@@H](CC(=O)O)C(=O)N[C@H](C(=O)N[C@@H](CC(=O)O)C(N)=O)[C@@H](C)O)C(C)C` (Ac-EDDS[4Pal]VWWGGADTD-NH2), the Ki under setting [2] was 424 ± 13 nM.
